In PMC12090182, “Repurposing of the RIPK1-Selective Benzo[1,4]oxazepin-4-one Scaffold for the Development of a Type III LIMK1/2 Inhibitor” (ACS Chemical Biology, 2025):

How the values were obtained:
Assay in all cases: scanMAX KINOMEscan (Eurofins)
Type in all cases: binding
AAK1 = AAK1 (Homo sapiens, UniProt Q2M2I8); settings: 1000 nM, read-out: Percent Control
Text: (§1) Supplement cb5c00097_si_002.xlsx, sheet "Table S6 (Eurofins Selectivity)" | column: Percent Control

BMX = BMX (Homo sapiens, UniProt P51813); settings: read-out: Percent Control
Chain of BMX (P51813 whole entry): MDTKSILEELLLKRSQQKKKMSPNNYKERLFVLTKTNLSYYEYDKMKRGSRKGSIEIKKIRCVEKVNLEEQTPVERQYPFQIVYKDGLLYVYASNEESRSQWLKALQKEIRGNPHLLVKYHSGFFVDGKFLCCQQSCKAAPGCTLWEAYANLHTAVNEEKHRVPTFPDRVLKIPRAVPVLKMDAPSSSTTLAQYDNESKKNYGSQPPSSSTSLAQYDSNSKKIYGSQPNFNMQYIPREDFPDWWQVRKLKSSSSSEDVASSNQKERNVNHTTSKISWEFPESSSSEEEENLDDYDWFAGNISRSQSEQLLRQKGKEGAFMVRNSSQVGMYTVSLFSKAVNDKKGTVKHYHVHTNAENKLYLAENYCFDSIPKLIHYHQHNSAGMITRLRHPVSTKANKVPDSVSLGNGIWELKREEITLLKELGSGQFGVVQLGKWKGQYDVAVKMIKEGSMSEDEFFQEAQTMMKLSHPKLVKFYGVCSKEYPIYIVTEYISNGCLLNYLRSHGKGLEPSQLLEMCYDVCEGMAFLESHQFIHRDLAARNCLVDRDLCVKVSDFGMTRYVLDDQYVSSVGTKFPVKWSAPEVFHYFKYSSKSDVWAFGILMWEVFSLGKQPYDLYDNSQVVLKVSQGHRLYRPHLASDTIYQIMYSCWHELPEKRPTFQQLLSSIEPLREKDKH
Text: as §1

BRSK2 = BRSK2 (Homo sapiens, UniProt Q8IWQ3); settings: read-out: Percent Control
Chain of BRSK2 (Q8IWQ3 whole entry): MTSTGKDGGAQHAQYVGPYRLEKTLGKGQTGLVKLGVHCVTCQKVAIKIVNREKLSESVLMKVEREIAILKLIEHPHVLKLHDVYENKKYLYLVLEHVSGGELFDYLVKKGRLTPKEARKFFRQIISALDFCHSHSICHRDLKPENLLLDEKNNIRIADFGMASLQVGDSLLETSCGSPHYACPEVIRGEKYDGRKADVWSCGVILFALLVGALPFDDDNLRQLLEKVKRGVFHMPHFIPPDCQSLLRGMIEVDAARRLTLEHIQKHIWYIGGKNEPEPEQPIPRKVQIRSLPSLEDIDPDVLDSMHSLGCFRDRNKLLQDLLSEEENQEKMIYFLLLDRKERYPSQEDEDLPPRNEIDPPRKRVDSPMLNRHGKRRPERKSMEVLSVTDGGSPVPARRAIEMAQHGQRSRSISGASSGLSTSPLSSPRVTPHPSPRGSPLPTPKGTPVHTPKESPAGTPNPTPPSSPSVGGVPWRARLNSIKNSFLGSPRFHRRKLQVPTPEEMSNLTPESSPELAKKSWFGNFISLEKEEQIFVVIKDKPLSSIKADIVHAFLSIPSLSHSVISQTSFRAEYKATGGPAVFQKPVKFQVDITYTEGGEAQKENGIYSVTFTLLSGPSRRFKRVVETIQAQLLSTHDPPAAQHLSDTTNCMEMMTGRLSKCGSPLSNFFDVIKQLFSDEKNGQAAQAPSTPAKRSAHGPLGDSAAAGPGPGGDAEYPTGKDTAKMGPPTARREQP
Text: as §1

CDK4 = CDK4 (Homo sapiens, UniProt P11802); settings: 1000 nM, read-out: Percent Control
Text: as §1

CHEK1 = CHEK1 (Homo sapiens, UniProt O14757); settings: read-out: Percent Control
Chain of CHEK1 (O14757 whole entry): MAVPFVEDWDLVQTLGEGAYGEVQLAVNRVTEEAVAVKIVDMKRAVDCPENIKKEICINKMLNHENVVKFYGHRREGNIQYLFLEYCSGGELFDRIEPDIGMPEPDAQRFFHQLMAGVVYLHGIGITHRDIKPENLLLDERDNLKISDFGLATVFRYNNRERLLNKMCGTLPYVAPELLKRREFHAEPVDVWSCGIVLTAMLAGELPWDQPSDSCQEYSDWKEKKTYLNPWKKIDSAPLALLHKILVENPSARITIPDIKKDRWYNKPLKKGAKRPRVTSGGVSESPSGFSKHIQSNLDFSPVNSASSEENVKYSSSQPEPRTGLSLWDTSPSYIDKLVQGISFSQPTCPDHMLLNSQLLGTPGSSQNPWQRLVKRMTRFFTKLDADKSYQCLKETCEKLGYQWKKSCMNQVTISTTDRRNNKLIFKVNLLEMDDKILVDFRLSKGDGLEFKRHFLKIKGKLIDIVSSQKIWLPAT
Text: as §1

CSNK1E = CSNK1E (Homo sapiens, UniProt P49674); settings: read-out: Percent Control
Chain of CSNK1E (P49674 whole entry): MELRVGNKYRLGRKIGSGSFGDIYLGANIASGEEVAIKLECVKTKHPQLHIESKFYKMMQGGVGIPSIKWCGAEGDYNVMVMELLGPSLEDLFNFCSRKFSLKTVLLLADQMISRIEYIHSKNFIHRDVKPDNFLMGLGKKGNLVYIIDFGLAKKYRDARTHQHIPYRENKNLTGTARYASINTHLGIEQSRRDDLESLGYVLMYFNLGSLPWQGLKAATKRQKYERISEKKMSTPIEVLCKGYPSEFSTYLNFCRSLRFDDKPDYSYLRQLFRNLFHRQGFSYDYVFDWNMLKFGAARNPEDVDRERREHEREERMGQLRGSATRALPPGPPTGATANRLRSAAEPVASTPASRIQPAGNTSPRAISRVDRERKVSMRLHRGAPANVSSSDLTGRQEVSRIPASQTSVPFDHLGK
Text: as §1

CSNK2A1 = CSNK2A1 (Homo sapiens, UniProt P68400); settings: read-out: Percent Control
Chain of CSNK2A1 (P68400 whole entry): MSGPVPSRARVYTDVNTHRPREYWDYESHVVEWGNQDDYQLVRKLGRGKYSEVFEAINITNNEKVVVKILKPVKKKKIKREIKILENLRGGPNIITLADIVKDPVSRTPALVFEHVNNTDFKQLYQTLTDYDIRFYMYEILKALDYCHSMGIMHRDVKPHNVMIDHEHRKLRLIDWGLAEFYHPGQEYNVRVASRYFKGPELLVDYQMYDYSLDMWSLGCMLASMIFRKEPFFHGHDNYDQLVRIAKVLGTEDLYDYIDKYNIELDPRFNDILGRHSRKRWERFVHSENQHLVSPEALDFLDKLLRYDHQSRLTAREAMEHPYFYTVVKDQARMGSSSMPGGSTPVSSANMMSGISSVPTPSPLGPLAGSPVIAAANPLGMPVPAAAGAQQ
Text: as §1

DDR1 = DDR1 (Homo sapiens, UniProt Q08345); settings: read-out: Percent Control
Chain of DDR1 (Q08345 19-913): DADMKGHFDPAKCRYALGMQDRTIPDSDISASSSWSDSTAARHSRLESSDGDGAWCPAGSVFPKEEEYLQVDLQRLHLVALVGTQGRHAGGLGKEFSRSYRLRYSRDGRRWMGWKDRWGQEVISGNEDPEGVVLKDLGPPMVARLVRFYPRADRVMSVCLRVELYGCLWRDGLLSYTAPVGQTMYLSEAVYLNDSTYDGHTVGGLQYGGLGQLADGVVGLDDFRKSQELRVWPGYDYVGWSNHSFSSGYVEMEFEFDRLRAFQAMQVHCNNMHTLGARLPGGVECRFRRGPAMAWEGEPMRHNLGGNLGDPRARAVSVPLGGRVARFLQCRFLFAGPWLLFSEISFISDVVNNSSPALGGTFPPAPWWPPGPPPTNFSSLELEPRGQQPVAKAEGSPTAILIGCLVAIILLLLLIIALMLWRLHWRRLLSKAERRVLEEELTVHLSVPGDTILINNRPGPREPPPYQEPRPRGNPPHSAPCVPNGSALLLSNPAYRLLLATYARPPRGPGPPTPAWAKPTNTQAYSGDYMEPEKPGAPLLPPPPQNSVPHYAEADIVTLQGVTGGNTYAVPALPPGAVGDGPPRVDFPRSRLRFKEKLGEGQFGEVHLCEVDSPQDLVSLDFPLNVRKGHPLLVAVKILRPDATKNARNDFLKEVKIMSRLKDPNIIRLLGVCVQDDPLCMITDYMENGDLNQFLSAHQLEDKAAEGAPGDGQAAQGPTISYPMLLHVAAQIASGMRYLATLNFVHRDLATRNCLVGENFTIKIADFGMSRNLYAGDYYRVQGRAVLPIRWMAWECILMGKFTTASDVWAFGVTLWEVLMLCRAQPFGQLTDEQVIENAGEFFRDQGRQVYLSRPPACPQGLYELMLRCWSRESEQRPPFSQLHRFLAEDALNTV
Text: as §1

DRAK2 = DRAK2 (Homo sapiens, UniProt O94768); settings: 1000 nM, read-out: Percent Control
Text: as §1

DYRK1A = DYRK1A (Homo sapiens, UniProt Q13627); settings: 1000 nM, read-out: Percent Control
Text: as §1

DYRK1B = DYRK1B (Homo sapiens, UniProt Q9Y463); settings: read-out: Percent Control
Chain of DYRK1B (Q9Y463 whole entry): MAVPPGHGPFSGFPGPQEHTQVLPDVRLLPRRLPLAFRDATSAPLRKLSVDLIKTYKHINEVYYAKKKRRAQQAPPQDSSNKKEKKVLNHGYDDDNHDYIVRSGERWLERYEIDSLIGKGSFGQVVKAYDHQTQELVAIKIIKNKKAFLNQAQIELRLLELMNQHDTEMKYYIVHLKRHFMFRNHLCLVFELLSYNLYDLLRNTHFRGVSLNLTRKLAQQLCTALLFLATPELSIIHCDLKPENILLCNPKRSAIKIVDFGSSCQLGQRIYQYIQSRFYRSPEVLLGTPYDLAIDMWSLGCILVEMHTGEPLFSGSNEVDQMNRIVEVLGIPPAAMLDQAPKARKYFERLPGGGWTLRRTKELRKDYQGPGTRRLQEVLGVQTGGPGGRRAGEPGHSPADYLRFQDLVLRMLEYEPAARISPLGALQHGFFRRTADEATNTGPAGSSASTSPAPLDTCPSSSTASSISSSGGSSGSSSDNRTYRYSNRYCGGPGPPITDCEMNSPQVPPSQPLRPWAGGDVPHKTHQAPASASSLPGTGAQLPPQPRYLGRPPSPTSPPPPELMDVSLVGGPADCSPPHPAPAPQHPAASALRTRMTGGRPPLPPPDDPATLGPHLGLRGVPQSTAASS
Text: as §1

EPHB4 = EPHB4 (Homo sapiens, UniProt P54760); settings: 1000 nM, read-out: Percent Control
Text: as §1

ERK1 = ERK1 (Homo sapiens, UniProt P27361); settings: read-out: Percent Control
Chain of ERK1 (P27361 whole entry): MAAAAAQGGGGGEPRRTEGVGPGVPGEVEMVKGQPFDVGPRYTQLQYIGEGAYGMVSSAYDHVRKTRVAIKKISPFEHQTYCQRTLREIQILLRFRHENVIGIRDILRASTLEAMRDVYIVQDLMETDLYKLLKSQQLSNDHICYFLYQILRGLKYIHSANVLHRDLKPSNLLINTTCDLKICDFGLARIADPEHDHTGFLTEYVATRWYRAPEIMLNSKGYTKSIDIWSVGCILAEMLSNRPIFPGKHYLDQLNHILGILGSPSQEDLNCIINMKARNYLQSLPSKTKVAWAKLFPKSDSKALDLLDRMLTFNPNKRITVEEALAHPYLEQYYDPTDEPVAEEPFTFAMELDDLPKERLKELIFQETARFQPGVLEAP
Text: as §1

FAK = FAK (Homo sapiens, UniProt Q05397); settings: 1000 nM, read-out: Percent Control
Text: as §1

FLT3(ITD) = settings: 1000 nM
Text: as §1

LATS2 = LATS2 (Homo sapiens, UniProt Q9NRM7); settings: 1000 nM, read-out: Percent Control
Text: as §1

MAP3K15 = MAP3K15 (Homo sapiens, UniProt Q6ZN16); settings: compound concentration 100 nM; Entrez MAP3K15; read-out: Percent Control
Text: as §1

MEK1 = MEK1 (Homo sapiens, UniProt Q02750); settings: compound concentration 100 nM; Entrez MAP2K1; read-out: Percent Control
Text: as §1

MST1 = MST1 (Homo sapiens, UniProt Q13043); settings: 1000 nM, read-out: Percent Control
Text: as §1

MTOR = MTOR (Homo sapiens, UniProt P42345); settings: compound concentration 100 nM; Entrez MTOR; read-out: Percent Control
Text: as §1

MUSK = MUSK (Homo sapiens, UniProt O15146); settings: 1000 nM, read-out: Percent Control
Text: as §1

PAK2 = PAK2 (Homo sapiens, UniProt Q13177); settings: 1000 nM, read-out: Percent Control
Text: as §1

PAK4 = PAK4 (Homo sapiens, UniProt O96013); settings: 1000 nM, read-out: Percent Control
Text: as §1

PKAC-beta = PKAC-beta (Homo sapiens, UniProt P22694); settings: 1000 nM, read-out: Percent Control
Text: as §1

PRKD3 = PRKD3 (Homo sapiens, UniProt O94806); settings: 1000 nM, read-out: Percent Control
Text: as §1

PYK2 = PYK2 (Homo sapiens, UniProt Q14289); settings: 1000 nM, read-out: Percent Control
Text: as §1

RIPK4 = RIPK4 (Homo sapiens, UniProt P57078); settings: 1000 nM, read-out: Percent Control
Text: as §1

SBK1 = SBK1 (Homo sapiens, UniProt Q52WX2); settings: compound concentration 100 nM; Entrez SBK1; read-out: Percent Control
Text: as §1

SGK3 = SGK3 (Homo sapiens, UniProt Q96BR1); settings: 1000 nM, read-out: Percent Control
Text: as §1

SRC = SRC (Homo sapiens, UniProt P12931); settings: compound concentration 100 nM; Entrez SRC; read-out: Percent Control
Text: as §1

STK16 = STK16 (Homo sapiens, UniProt O75716); settings: compound concentration 100 nM; Entrez STK16; read-out: Percent Control
Chain of STK16 (O75716 whole entry): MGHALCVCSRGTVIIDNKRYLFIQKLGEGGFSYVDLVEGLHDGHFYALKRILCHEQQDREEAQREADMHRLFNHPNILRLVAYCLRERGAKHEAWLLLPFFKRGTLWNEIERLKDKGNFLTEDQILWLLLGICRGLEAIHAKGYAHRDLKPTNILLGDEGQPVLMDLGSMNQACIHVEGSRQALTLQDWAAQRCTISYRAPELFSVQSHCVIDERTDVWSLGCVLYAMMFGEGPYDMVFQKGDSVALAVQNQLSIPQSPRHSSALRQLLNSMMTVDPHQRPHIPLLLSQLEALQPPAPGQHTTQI
Text: as §1

SYK = SYK (Homo sapiens, UniProt P43405); settings: 1000 nM, read-out: Percent Control
Text: as §1

TEC = TEC (Homo sapiens, UniProt P42680); settings: compound concentration 100 nM; Entrez TEC; read-out: Percent Control
Text: as §1

TGFBR2 = TGFBR2 (Homo sapiens, UniProt P37173); settings: compound concentration 100 nM; Entrez TGFBR2; read-out: Percent Control
Text: as §1

TXK = TXK (Homo sapiens, UniProt P42681); settings: 1000 nM, read-out: Percent Control
Text: as §1

p38-alpha = p38-alpha (Homo sapiens, UniProt Q16539); settings: compound concentration 100 nM; Entrez MAPK14; read-out: Percent Control
Text: as §1

CN1C(=O)[C@@H](N2CCc3c(nn(Cc4ccccc4)c3C(N)=O)C2=O)COc2cc(Cl)ccc21 [Compound 10, (S)-2-benzyl-6-(8-chloro-5-methyl-4-oxo-2,3,4,5-tetrahydrobenzo[b][1,4]oxazepin-3-yl)-7-oxo-4,5,6,7-tetrahydro-2H-pyrazolo[3,4-c]pyridine-3-carboxamide]
remaining binding at 1 µM (AAK1): 83% | remaining binding at 1 µM (BMX; 1000 nM): 100% | remaining binding at 0.1 µM (BMX; compound concentration 100 nM, Entrez BMX): 100% | remaining binding at 1 µM (BRSK2; 1000 nM): 100% | remaining binding at 0.1 µM (BRSK2; compound concentration 100 nM, Entrez BRSK2): 85% | remaining binding at 1 µM (CDK4): 76% | remaining binding at 1 µM (CHEK1; 1000 nM): 100% | remaining binding at 0.1 µM (CHEK1; compound concentration 100 nM, Entrez CHEK1): 86% | remaining binding at 1 µM (CSNK1E; 1000 nM): 100% | remaining binding at 0.1 µM (CSNK1E; compound concentration 100 nM, Entrez CSNK1E): 91% | remaining binding at 1 µM (CSNK2A1; 1000 nM): 100% | remaining binding at 0.1 µM (CSNK2A1; compound concentration 100 nM, Entrez CSNK2A1): 82% | remaining binding at 1 µM (DDR1; 1000 nM): 100% | remaining binding at 0.1 µM (DDR1; compound concentration 100 nM, Entrez DDR1): 77% | remaining binding at 1 µM (DRAK2): 82% | remaining binding at 1 µM (DYRK1A): 93% | remaining binding at 1 µM (DYRK1B; 1000 nM): 100% | remaining binding at 0.1 µM (DYRK1B; compound concentration 100 nM, Entrez DYRK1B): 100% | remaining binding at 1 µM (EPHB4): 94% | remaining binding at 1 µM (ERK1; 1000 nM): 100% | remaining binding at 0.1 µM (ERK1; compound concentration 100 nM, Entrez MAPK3): 93% | remaining binding at 1 µM (FAK): 90% | Percent Control (FLT3(ITD)): 77% | remaining binding at 1 µM (LATS2): 69% | remaining binding at 0.1 µM (MAP3K15): 71% | remaining binding at 0.1 µM (MEK1): 91% | remaining binding at 1 µM (MST1): 92% | remaining binding at 0.1 µM (MTOR): 86% | remaining binding at 1 µM (MUSK): 92% | remaining binding at 1 µM (PAK2): 67% | remaining binding at 1 µM (PAK4): 73% | remaining binding at 1 µM (PKAC-beta): 87% | remaining binding at 1 µM (PRKD3): 92% | remaining binding at 1 µM (PYK2): 82% | remaining binding at 1 µM (RIPK4): 83% | remaining binding at 0.1 µM (SBK1): 68% | remaining binding at 1 µM (SGK3): 90% | remaining binding at 0.1 µM (SRC): 85% | remaining binding at 0.1 µM (STK16): 80% | remaining binding at 1 µM (SYK): 95% | remaining binding at 0.1 µM (TEC): 86% | remaining binding at 0.1 µM (TGFBR2): 100% | remaining binding at 1 µM (TXK): 86% | remaining binding at 0.1 µM (p38-alpha): 100%
